From patent publication US7776572B2, “Method for reducing loss of enzyme activity during storage” (Corning Incorporated, priority 1996, dated 2010)

What was measured:
[1] = test system: GAM-IgG-HRP (goat-anti-mouse-IgG-horseradish peroxidase enzyme labeled antibody); experiment: Bound enzyme labeled antibody on strips exposed to aqueous surfactant, rinsed or not rinsed, ABTS readout; conditions: 0.1% surfactant in H2O/isopropanol (95/5), not dried, rinsed 5x with dI H2O
Procedure: Medium binding (catalog #2587) and high binding (catalog #2581) polystyrene 96-well plates (8-well strips) manufactured by Corning Costar were used as follows. […] Strips were incubated for 30 minutes at room temperature on a rocker table. Strips were then emptied and tapped out. […] Immediately following this procedure, each well was aliquoted 0.10 ml of GAM-IgG-HRP (goat-anti-mouse-IgG-horseradish peroxidase enzyme labeled antibody; Kirkegaard and Perry, Gaithersburg, Md., Catalog #074-1806) at 1.0 μg/ml in PBS buffer pH=7.4). Strips were incubated for one hour at room temperature on a rocker table. Strips were then rinsed 5× with PBS buffer containing 0.02% Tween-20 followed by post rinsing with H2O. […] Absorbance at 405 nm was measured on a Cambridge Technologies #7520 Plate Reader.

[2] = test system: IgG (Horse Standard, Pierce); experiment: Coating durability using protein solution washes on four polymers, colloidal Au; conditions: after six IgG solution exposures
Procedure: The procedures used were as follows. Injection molded assay plates (96-well format) were made from polystyrene, (STYRON Dow 685D), polypropylene (Exxon 9374), polymethyl methacrylate (ATO HAAS), and KYNAR FLEX 2800 PVDF copolymer (ATO HAAS). Each well was aliquoted 0.10 ml of IgG (Horse Standard, Pierce) at 10 μg/ml in 0.01 M PBS buffer (pH=7.4) and placed on a rocker table for 30 minutes at 23° C. The protein solution was then emptied from the wells and a fresh protein solution was aliquoted to each well and the entire procedure repeated a total of six times. The plates were then rinsed three times with dI H2O (0.3 ml/well). Colloidal Au stain was added to each well (0.3 ml/well) and the plates were placed on a rocker table overnight. Plates were then rinsed 3 times with dI H2O, allowed to dry, and absorbance at 550 nm was measured using the Cambridge Technologies Plate Reader.

BSA protein = experiment: Coating stability in the presence of excess protein, colloidal gold
Procedure: The following procedures were employed in this example. 24-well polystyrene plates were coated as described in Materials and Methods using 25 μl aliquots of 0.10% (w/v) sorbitol mono-oleate in isopropanol. Coverage of the sorbitol mono-oleate was calculated at 10 μg/cm^2. Each well of the plates was exposed to 1.0 ml of BSA protein (Pierce) at 2 mg/ml in PBS buffer (pH=7.4). The plates were incubated on a rocker table for 30 minutes at room temperature, the wells were emptied, and the protein exposure was repeated a total of six times. The plates were then rinsed 3 times with dI H2O and stained with the colloidal gold stain overnight. Plates were then rinsed with dI H2O, dried, and the absorbance of each well was measured at 550 nm on the Cambridge Technologies plate reader.

IgG = experiment: Protein binding to coated 0.45 micron PVDF membranes, Au stain; conditions: coated two times by immersion, 0.1% in isopropanol; IgG 10 μg/ml
Procedure: The experiments were performed using 0.45 micron PVDF membranes. The membranes were coated two times by immersion using 0.1% (weight/volume) of the following non-ionic surfactants in isopropanol: sorbitol mono-oleate, Pluronic® L-121, Pluronic® L-122, and Pluronic® L-123. The membrane was dried at room temperature after each of the two immersion coatings. The coated membranes were incubated with IgG 10 μg/ml in 0.1M PBS (pH 7.4) for 30 minutes at room temperature on an orbital shaker. The membranes were then rinsed three times with water in a clean plate, each rinse being performed for 5 minutes on the shaker. Thereafter, the membranes were stained with Au overnight, again on the shaker. An uncoated PVDF membrane was used as a control.

IgG protein = experiment: In-mold coating of 24-well polystyrene plates, protein binding by colloidal gold staining
Procedure: The in-mold coating aspects of the invention were tested by molding 24-well polystyrene plates. […] The 0.01% concentration was estimated to produce less than one monolayer of surfactant on the finished product, while the 0.1% concentration produced about 7 monolayers. The surfactant was applied to the mold using a Crown sprayer (Crown Industrial Products, Hebron, Ill.; Catalog #8011), which produces a sufficiently fine spray of droplets to uniformly coat the mold. The mold was sprayed before each part was made.

| Compound | Absorbance (405 nm) High Binding Polystyrene Rinsed [1] | Absorbance (405 nm) Medium Binding Polystyrene Rinsed [1] | Absorbance (550 nm) Polypropylene [2] | Absorbance (550 nm) Polystyrene [2] | Absorbance at 550 nm (BSA protein; 1 exposure to BSA 2 mg/ml, 30 min total, coated polystyrene) | Absorbance at 550 nm (BSA protein; 2 exposures, 60 min total) | Absorbance at 550 nm (BSA protein; 3 exposures, 90 min total) | Absorbance at 550 nm (BSA protein; 4 exposures, 120 min total) | Absorbance at 550 nm (BSA protein; 5 exposures, 150 min total) | Absorbance at 550 nm (BSA protein; 6 exposures, 180 min total) | protein binding to coated PVDF membrane (IgG) | protein binding of in-mold coated part (IgG protein; concentrations above 0.1%, ranging up to 2%) | protein binding of in-mold coated part (IgG protein; mold sprayed with 0.01% (w/v) solution in isopropanol) | protein binding of in-mold coated part (IgG protein; mold sprayed with 0.1% (w/v) solution in isopropanol) |
| --- | --- | --- | --- | --- | --- | --- | --- | --- | --- | --- | --- | --- | --- | --- |
| CCCCCCCC/C=C\CCCCCCCCOCCOCCO [PEO(2) OLEYL ETHER] | 2.10 | 1.90 |  |  |  |  |  |  |  |  |  |  |  |  |
| CCCCCCCCCCCCOCCOCCOCCOCCO [PEO(4) LAURYL ETHER] | 2.10 | 1.90 |  |  |  |  |  |  |  |  |  |  |  |  |
| SORBITOL MONO-OLEATE |  |  | 0.00 | 0.00 | 0.0 | 0.0 | 0.0 | 0.0 | 0.0 | 0.0 | substantially identical to that of the uncoated PVDF | found to work successfully | pooling and missed areas were seen which bound protein | essentially no protein binding |
